According to BindingDB's records for doi:10.1124/jpet.104.071282 (Neurocrine Biosciences, 2004):
Several values for one entry are separate records, joined by “and”; a condition that tells them apart may be missing. Equal values may be shown once.

Target: Gamma-aminobutyric acid receptor subunit alpha-1 (Rattus norvegicus, UniProt P62813)
Sequence (P62813 whole entry): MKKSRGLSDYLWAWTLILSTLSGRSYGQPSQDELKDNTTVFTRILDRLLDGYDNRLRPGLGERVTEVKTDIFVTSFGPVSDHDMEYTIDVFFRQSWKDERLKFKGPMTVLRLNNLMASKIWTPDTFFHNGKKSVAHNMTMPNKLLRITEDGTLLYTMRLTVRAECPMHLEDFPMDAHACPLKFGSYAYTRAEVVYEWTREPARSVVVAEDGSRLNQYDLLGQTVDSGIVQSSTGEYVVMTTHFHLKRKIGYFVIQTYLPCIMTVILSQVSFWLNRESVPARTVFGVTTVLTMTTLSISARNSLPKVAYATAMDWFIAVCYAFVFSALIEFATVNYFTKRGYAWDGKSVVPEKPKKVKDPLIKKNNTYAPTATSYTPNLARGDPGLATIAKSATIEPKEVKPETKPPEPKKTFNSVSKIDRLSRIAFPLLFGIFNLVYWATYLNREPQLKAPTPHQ

Cc1nnc2n1-c1ccc(Cl)cc1C(c1ccccc1Cl)=NC2 [Halcion]
Ki: 0.34 nM and 0.31 nM and 0.55 nM and 0.45 nM
